Structures are written as SMILES. Converted amounts (≈) assume the structure as drawn. Some results are limits rather than exact numbers.

The target in this experiment is EGFR (UniProt P00533).
EGFR, sequence (P00533 whole entry, looked up): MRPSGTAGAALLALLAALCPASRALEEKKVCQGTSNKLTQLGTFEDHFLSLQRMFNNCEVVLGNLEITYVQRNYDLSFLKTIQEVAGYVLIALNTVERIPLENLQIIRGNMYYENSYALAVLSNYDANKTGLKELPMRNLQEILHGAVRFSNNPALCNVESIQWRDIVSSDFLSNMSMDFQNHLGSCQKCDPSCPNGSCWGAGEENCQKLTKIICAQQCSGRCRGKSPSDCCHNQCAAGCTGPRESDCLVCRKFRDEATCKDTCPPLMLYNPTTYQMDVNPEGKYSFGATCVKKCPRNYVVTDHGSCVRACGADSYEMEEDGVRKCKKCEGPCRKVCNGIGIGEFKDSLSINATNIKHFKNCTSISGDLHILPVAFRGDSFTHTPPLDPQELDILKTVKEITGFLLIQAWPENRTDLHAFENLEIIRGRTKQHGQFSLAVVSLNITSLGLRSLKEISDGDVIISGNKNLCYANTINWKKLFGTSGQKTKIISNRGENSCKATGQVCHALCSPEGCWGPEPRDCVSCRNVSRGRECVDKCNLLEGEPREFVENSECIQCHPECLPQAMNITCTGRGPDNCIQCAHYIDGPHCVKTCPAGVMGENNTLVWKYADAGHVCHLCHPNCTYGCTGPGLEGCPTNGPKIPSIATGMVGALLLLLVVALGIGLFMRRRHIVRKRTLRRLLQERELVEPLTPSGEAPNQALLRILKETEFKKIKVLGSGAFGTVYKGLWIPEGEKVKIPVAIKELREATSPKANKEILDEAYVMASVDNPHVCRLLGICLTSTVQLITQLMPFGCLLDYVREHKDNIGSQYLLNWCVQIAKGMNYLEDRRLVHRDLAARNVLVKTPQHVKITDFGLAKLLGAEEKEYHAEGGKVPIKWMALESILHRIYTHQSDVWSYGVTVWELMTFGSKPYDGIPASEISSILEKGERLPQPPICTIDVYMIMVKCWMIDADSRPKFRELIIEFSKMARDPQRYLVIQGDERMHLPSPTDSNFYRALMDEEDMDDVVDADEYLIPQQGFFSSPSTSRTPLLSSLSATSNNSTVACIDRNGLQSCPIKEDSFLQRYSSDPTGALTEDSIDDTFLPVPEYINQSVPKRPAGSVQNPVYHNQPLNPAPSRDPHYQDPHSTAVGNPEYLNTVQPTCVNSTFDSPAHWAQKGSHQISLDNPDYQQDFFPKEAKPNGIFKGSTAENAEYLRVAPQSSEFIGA
Turning to `COc1cc(Nc2ncnc(-n3c(NCc4ccc(O)cc4)nc4ccccc43)n2)cc(OC)c1OC`, the IC50 (in general, the midpoint of a concentration-inhibition curve) was more than 4.5 µg/mL.

In turn, `COC(=O)Cc1cccc(Nc2ncnc(-n3c(N)nc4ccccc43)n2)c1` registered an IC50 of 2.4 to 3.5 µg/mL (≈ 6.39 to 9.32 µM). Then `COc1cc(Nc2ncnc(Nc3cccc(CC(=O)O)c3)n2)cc(OC)c1OC`, with less than 0.4 µg/mL. Turning to `CCOc1ccc(Nc2ncnc(-n3c(N)nc4ccccc43)n2)cc1OCC`, the half-inhibitory concentration (IC50) is 2.4 to 3.5 µg/mL (≈ 6.13 to 8.94 µM).

As for `Nc1nc2ccccc2n1-c1ncnc(Nc2cccc(Cl)c2)n1`, the IC50 was in the range of 0.4 to 2.4 µg/mL (≈ 1.18 to 7.11 µM).

`CC(C)(C)OC(=O)NCc1ccc(Nc2ncnc(Nc3cc(-c4ccco4)n[nH]3)n2)cc1` returned a concentration for half-maximal inhibition (IC50) of 0.4 to 2.4 µg/mL (≈ 0.892 to 5.35 µM). `COc1cc(Nc2ncnc(Nc3ccc4c(c3)CCC4)n2)cc(OC)c1OC` returned an IC50 of 0.4 to 2.4 µg/mL (≈ 1.02 to 6.1 µM). Then `COC(=O)c1cc(Nc2ncnc(Nc3cc(-c4ccco4)n[nH]3)n2)cc(C(=O)OC)c1`, with more than 4.5 µg/mL. The result for `Cc1ccc2c(c1)CCCN2c1ncnc(NCCc2cccnc2)n1` reads more than 4.5 µg/mL. Then `COc1cc(Nc2ncnc(N3CCc4cc([N+](=O)[O-])ccc43)n2)cc(OC)c1OC`, with more than 4.5 µg/mL; and `CC(C)(C)c1cc(Nc2ncnc(Cl)n2)[nH]n1`, with more than 4.5 µg/mL. `COc1cc(Nc2ncnc(N(CC(=O)O)c3ccc4c(c3)OCO4)n2)cc(OC)c1OC` showed a concentration for half-maximal inhibition (IC50) of 0.4 to 2.4 µg/mL (≈ 0.878 to 5.27 µM).

Turning to `FC(F)C(F)(F)Oc1cccc(Nc2ncnc(-c3cccs3)n2)c1`, the IC50 was more than 4.5 µg/mL.

`CCOC(=O)C(Nc1nc2ccccc2n1-c1ncnc(Nc2cc(OC)c(OC)c(OC)c2)n1)c1ccccc1` (stereo not drawn) had an IC50 of more than 4.5 µg/mL. Then `COc1cc(CNc2ncnc(Nc3cc(-c4ccco4)n[nH]3)n2)cc(OC)c1OC`, with more than 4.5 µg/mL; and `COc1cc(Nc2ncnc(-n3c(Nc4ccc(N(C)C)cc4)nc4ccccc43)n2)cc(OC)c1OC`, with more than 4.5 µg/mL. In the case of `COc1cc(Nc2ncnc(Nc3nc(C)cs3)n2)cc(OC)c1OC`, the IC50 fell in the range of 0.4 to 2.4 µg/mL (≈ 1.07 to 6.41 µM). Compound `N#Cc1ccc(Nc2ncnc(-n3c(=O)[nH]c4ccccc43)n2)cc1` showed an IC50 of more than 4.5 µg/mL. The result for `Cc1ccc2c(c1)CCCN2c1ncnc(NCCCn2ccnc2)n1` reads more than 4.5 µg/mL; that for `O=c1[nH]c2ccccc2n1-c1ncnc(Nc2ccc3ncccc3c2)n1`, 3.5 to 4.5 µg/mL (≈ 9.85 to 12.7 µM).

In turn, `O=c1[nH]c2ccccc2n1-c1ncnc(Nc2ccc(Cl)cc2)n1` yielded an IC50 of more than 4.5 µg/mL.

In turn, `COc1cc(Nc2ncnc(-c3ccc(F)cc3)n2)cc(OC)c1OC` showed an IC50 of more than 4.5 µg/mL. `COCCOc1ccc(Nc2ncnc(-c3ccccc3)n2)cc1` displayed a half-inhibitory concentration (IC50) of more than 4.5 µg/mL. Compound `COc1ccc(CNc2ncnc(Nc3ccc4c(cnn4Cc4ccccc4)c3)n2)cc1OC` yielded an IC50 of 3.5 to 4.5 µg/mL (≈ 7.49 to 9.62 µM). The result for `Nc1nc2ccccc2n1-c1ncnc(Nc2ccccc2)n1` reads more than 4.5 µg/mL; that for `Fc1ccc(CNc2ncccc2-c2ncnc(Nc3cccc(Cn4ccnn4)c3)n2)cc1`, 2.4 to 3.5 µg/mL (≈ 5.29 to 7.72 µM). As to `COc1cccc(Nc2ncnc(-c3ccccc3)n2)c1`, the half-inhibitory concentration (IC50) is more than 4.5 µg/mL.

Consider `COC(=O)Cc1cccc(Nc2ncnc(Nc3ccc(C)c(O)c3)n2)c1`, for which the IC50 was in the range of 0.4 to 2.4 µg/mL (≈ 1.09 to 6.57 µM). Then `COc1cc(Nc2ncnc(Nc3cc(-c4ccccc4)nn3C)n2)cc(OC)c1OC`, with 3.5 to 4.5 µg/mL (≈ 8.07 to 10.4 µM); and `NC(=O)c1ccc(Nc2ncnc(-c3cccnc3NCc3cccs3)n2)cc1`, with 0.4 to 2.4 µg/mL (≈ 0.991 to 5.95 µM); and `COc1cc(Nc2ncnc(-c3cccnc3Nc3cc(Cl)cc(Cl)c3)n2)cc(OC)c1OC`, with more than 4.5 µg/mL. Then `COc1cc(Nc2ncnc(Nc3cc(-c4ccco4)n[nH]3)n2)cc(OC)c1OC`, with less than 0.4 µg/mL; and `COc1cc(Nc2ncnc(-n3ccc4cc(F)ccc43)n2)cc(OC)c1OC`, with more than 4.5 µg/mL. `COCCOc1ccc(Nc2ncnc(Nc3ccc(C)c(O)c3)n2)cc1OCCOC` came in with a concentration for half-maximal inhibition (IC50) of 0.4 to 2.4 µg/mL (≈ 0.906 to 5.44 µM).

`COc1ccc(Nc2ncnc(Nc3cc(OC)c(OC)c(OC)c3)n2)cc1OC`: the half-inhibitory concentration (IC50) fell in the range of 3.5 to 4.5 µg/mL (≈ 8.47 to 10.9 µM). Consider `COc1ccc([C@@H](C)Nc2nc3ccccc3n2-c2ncnc(Nc3cc(OC)c(OC)c(OC)c3)n2)cc1`, for which the IC50 is more than 4.5 µg/mL. Consider `COc1cc(Nc2ncnc(Nc3cc(C)[nH]n3)n2)cc(OC)c1OC`, for which the IC50 fell in the range of 3.5 to 4.5 µg/mL (≈ 9.79 to 12.6 µM). Then `CC(=O)Nc1ccc(Nc2ncnc(-c3cccs3)n2)cc1`, with more than 4.5 µg/mL.

These data come from the Kinase Knowledgebase extract (Sharma et al. 2016).
